The record followed here is patent US10675293B2, “Nucleoside agents for the reduction of the deleterious activity of extended nucleotide repeat containing genes” (The Board of Trustees of the Leland Stanford Junior …, priority 2015, dated 2020).

For experiment [1], the system named is mutant Huntingtin protein. The experiment can be described thus: Western blot of mutant HTT in Huntington's disease patient iPSC ND36999. It counts as cell-based, human. The settings on record: iPSC with 180 CAG repeats, 24 hr. On the procedure:
(§1) Cell samples were lysed in 30 mM Tris-HCl, pH 8.0, 5 mM NaCl, 0.1% Triton X-100 for 10 min on ice. The supernatants from spinning (14 k rpm for 10 min) were collected. The protein concentrations were determined by BCA assay (Pierce, ThermoFisher). Equal amounts of protein were loaded onto 4-12% gel. After electrophoresis, the gels were transferred to nitrocellulose membranes by wet transfer at 35V for 16 hr. The protein level of mutant HTT, total HTT and tubulin were determined by immunoblotting with anti-poly Glutamine (MAB1574 from Millipore), anti-Huntingtin protein (MAB2166 from Millipore) and anti-alpha tubulin (AJ1034a from ABGENT). Blots were imaged on a Li-Cor Odyssey infrared imager. The bands intensities were determined by Li-Cor Odyssey software.
(§2) To test whether the nucleoside 6-Azauridine (HD101) and (−)-6-Azauridine 2′,3′,5′-triacetate (HD106) can affect the expression of proteins with long polyQ domains, one iPSC (induced pluripotent stem cell) line ND36999, which was derived from a Huntington's disease patient who carries one allele of mutant htt gene with 180 CAG repeats, was purchased from the Coriell Institute. The iPSCs were plated into a 24-well plate coated with Matrigel. […] Cells were lysed and the protein concentrations were determined by BCA assay. […] The image (FIG. 10) was taken and the quantification was made by Li-Cor Odyssey imaging system.

Another experiment concerns total Huntingtin protein. The experiment can be described thus: Western blot of total HTT in Huntington's disease patient iPSC ND36999. In kind it is cell-based, human. The following applies: iPSC with 180 CAG repeats, 24 hr. On the procedure:
as §1, §2
A general note: Immunoblotting shows a protein as a band on a membrane.

In experiment [2] the target is T1, Supt4h-YC / Supt5h NGN-YN interaction (Homo sapiens, UniProt O00267+P63272).
T1 construct: NGN-YN is a genetic engineered protein in which Supt5h NGN domain is fused to YFP YN; expressed in transfected cells
The experiment can be described thus: Bimolecular fluorescence complementation (BiFC) assay in 2-PN4 stable cells. It counts as cell-based. The following applies: 24 hr with Doxycycline 4 μg/ml. On the procedure:
Human Supt4h and Supt5hNGN were fused in-frame with the YC and YN respectively. The YN and YC represent the N- and C-terminal domain of yellow fluorescent protein Venus. To prevent a change in protein folding caused by the conjugation of two polypeptides (Kerppola, “Design and implementation of bimolecular fluorescence complementation (BiFC) assays for the visualization of protein interactions in living cells,” Nature protocols (2006) 1:1278-1286), a protein linker containing additional 10 amino acid residues was included in the fusion protein. Also, extra amino acids GSHM were incorporated into the Supt5hNGN to increase its protein stability (Wenzel et al., “Crystal structure of the human transcription elongation factor DSIF hSpt4 subunit in complex with the hSpt5 dimerization interface,” The Biochemical journal (2010) 425:373-380). Supt4h, NGN, YC, and YN were amplified by PCR to generate DNA fragments containing the nucleotide sequence of protein linker. Supt4h and NGN PCR products then were mixed with the PCR product of YN or YC for secondary overlapping PCR. Finally, the resulting Supt4h-YC and NGN-YN DNA fragment was cloned into plasmid vector pcDNA3-HA and pFLAG-CMV-2 respectively.
Tet-on HeLa cells were transfected with linearized pTRE-HA-Supt4h-VC-Flag-NGN-VN plasmid construct using LipofectAMINE 2000 (Invitrogen). After transfection, cells were cultured initially in growth medium containing puromycin (1 μg/ml) and then selected for clones that show YFP fluorescence in the presence of tetracycline (4 μg/ml). The stable line having the strongest fluorescence signal was isolated and designated as 2-PN4. Likewise, 21-VS stable line was created using pTRE-HA-Venus.
Stable lines 2-PN4 and 21-VS were pre-cultured in 6-well plates, followed by an incubation of Doxycycline (4 μg/ml) together with various concentrations of chemical compounds for 24 hr. Cells were washed with PBS (Sigma) and monitored by microscope (20× magnification). Photos were taken using Nikon D500 camera with a setting of ISO 1600, shutter 1/200 for the light images, and shutter ½ for the fluorescence images. For quantification of fluorescence intensity, 5 photos with similar cell number were taken and the fluorescence signal was measured by Metamorph software individually. The average of overall fluorescence signal was determined and compared to the one observed in DMSO-treated control sample.
For the purpose of high-throughput drug screening, based on the BiFC method as mentioned above, we have created a stable cell line that co-expresses NGN-YN and Supt4h-YC under the control of a tet-on inducible promoter. […] If the complementation that is driven by NGN and Supt4h interaction is inhibited by a given test compound, the de novo YFP fluorescence signal is affected. […]

Experiment [3] relates to Supt4h-YC and NGN-YN protein expression. The experiment can be described thus: Western blot of Supt4h-YC and NGN-YN protein levels in 2-PN4 cells. It counts as cell-based, human. On the procedure:
As described (Liu et al., “Spt4 is selectively required for transcription of extended trinucleotide repeats,” Cell (2012) 148:690-701), equal amounts of protein were resolved by electrophoresis on 12% sodium dodecyl sulfate (SDS)-polyacrylamide gels, and transferred onto nitrocellulose membranes (nitrocellulose, Waterman 0.45 μM, NBA085C). After blocking with 5% low-fat milk in Tris-buffer saline containing 0.1% Tween-20, membranes were probed with primary antibodies, incubated with a horseradish peroxidase (HRP)-conjugated secondary antibody, and detected by ECL reagent (enhanced chemiluminescence, PerkinElmer).

The next experiment relates to wild-type Htt gene. The experiment can be described thus: RT-PCR of Htt mRNA in Hdh Q7/Q7 striatal cells. In kind it is cell-based, mouse. The settings on record: compared to mock control. On the procedure:
(§3) Tet-on HeLa cells (Clontech Laboratories), and stable line 2-PN4 and 21-VS were cultured in DMEM (Gibco) supplemented with 10% Tet-off fetal bovine serum (Gibco) at 37° C. with 5% CO2. Hdh Q7/Q7 (mouse), Hdh Q111/Q111 (mouse) were cultured in DMEM (HyClone) supplemented with 10% fetal bovine serum at 33° C. with 5% C02.
(§4) Total RNA was extracted from murine neuronal cells using TRI Reagent (Sigma). For cDNA conversion, 2 μg of total RNA was mixed with 5 μM random primer, 5 μM SnRNA U6 rt-PCR primer and 500 μM dNTPs, incubated at 65° C. for 5 min and then chilled on ice. After addition of First-Strand Buffer, DTT (Cf=10 mM) and 1 μl reverse transcriptase (Invitrogen), the reaction was carried out at 42° C. for 1 hr. Equal volumes of cDNA products were PCR amplified and resolved on 2.5% agarose gels to determine the abundance of Htt transcripts after normalization with U6 or 18S ribosomal RNA.

The next experiment has as its system mutant Htt gene. The experiment in a line: RT-PCR of Htt mRNA in Hdh Q111/Q111 striatal cells. It counts as cell-based, mouse. The following applies: compared to mock control. The protocol: as §3, §4
For experiment [4], the target named is T2, Supt4h-YC / NGN-YN complex (Homo sapiens, UniProt O00267+P63272).
T2 construct: NGN-YN is a genetic engineered protein in which Supt5h NGN domain is fused to YFP YN; expressed in transfected cells
The experiment can be described thus: Co-immunoprecipitation of HA-Supt4h-YC with Flag-NGN-YN from 2-PN4 cells. In kind it is cell-based. The settings on record: 20 μM, 36 hr, immunoprecipitation with anti-HA. On the procedure:
2-PN4 cells, following a treatment of 6CR (Cf=20 μM) for 36 hr, were lysed with modified RIPA buffer (50 mM Tris-HCl [pH 7.5], 150 mM NaCl, 1% NP-40, 1% sodium deoxycholate), supplement with 1 mM Na3VO4, 1 mM DTT, 1 mM PMSF and protease inhibitor cocktail (Sigma). The collected protein lysates (1 mg) were diluted with modified RIPA buffer to a final volume of 0.5 ml and then incubated with anti-HA antibodies (1 μg) overnight. Following incubation with protein A agarose beads (Millipore) for another 6 hr, the beads were washed twice with modified RIPA buffer containing 20 μM 6CR. All of these performances were carried out at 4° C. For detection of proteins that coprecipitated with HA-Supt4h-YC, the immunocomplex was fractionated by SDS-PAGE, followed by Western blotting analysis with anti-HA and anti-FLAG antibodies.

The test system of another experiment is 21-VS cells (HA-Venus). The experiment in a line: Control fluorescence of 21-VS stable cells expressing intact Venus. In kind it is cell-based. The settings on record: same experimental conditions as 2-PN4 cells. On the procedure:
The HA-Supt4h-YC and FLAG-NGN-YN fragments were amplified by PCR using plasmid constructs described above and sub-cloned individually into the pTRE-tight-BI vector (Clontech Laboratories), which contain a bi-directional CMV promoter under the control of tetracycline. The coding sequence of yellow fluorescence protein Venus with a HA-epitope in its N-terminus was PCR-amplified and cloned into the vector to generate pTRE-HA-Venus.
Tet-on HeLa cells were transfected with linearized pTRE-HA-Supt4h-VC-Flag-NGN-VN plasmid construct using LipofectAMINE 2000 (Invitrogen). After transfection, cells were cultured initially in growth medium containing puromycin (1 μg/ml) and then selected for clones that show YFP fluorescence in the presence of tetracycline (4 μg/ml). The stable line having the strongest fluorescence signal was isolated and designated as 2-PN4. […]
Stable lines 2-PN4 and 21-VS were pre-cultured in 6-well plates, followed by an incubation of Doxycycline (4 μg/ml) together with various concentrations of chemical compounds for 24 hr. Cells were washed with PBS (Sigma) and monitored by microscope (20× magnification). Photos were taken using Nikon D500 camera with a setting of ISO 1600, shutter 1/200 for the light images, and shutter ½ for the fluorescence images. […] The average of overall fluorescence signal was determined and compared to the one observed in DMSO-treated control sample. […]

Entries after “also recorded” stand apart in the source; their conditions may differ.

For the compound `CC(=O)OC[C@H]1O[C@@H](n2ncc(=O)[nH]c2=O)[C@H](OC(C)=O)[C@@H]1OC(C)=O` [HD106, (−)—6-Azauridine 2′,3′,5′-Triacetate], the “mutant Huntingtin protein level” value in experiment [1] is on record as “preferentially decrease mutant Huntingtin protein in a dose dependent manner; also recorded: reduced mutant huntingtin expression in a dose dependent manner”. Moreover, in the experiment with total Huntingtin protein, the “total Huntingtin protein expression level” value is “little effect”.
Turning to `OC[C@H]1O[C@@H](n2cnc3c(Cl)ncnc32)C(O)C1O` (stereo partly drawn) [6CR, 6-Chloropurine riboside], the “fluorescence intensity of 2-PN4 cells relative to control sample” value in experiment [2] (10 μM) is “decreased to half of control sample”. In addition, the “BiFC fluorescence signal of 2-PN4 cells” value in experiment [2] (various concentrations) is “reduces the fluorescence signal of 2-PN4 cells in a concentration-dependent manner; also recorded: inhibits Supt4h-YC and NGN-YN interaction”. Also, the “protein expression of Supt4h-YC and NGN-YN” value in experiment [3] is listed as “does not interfere with the protein expression”. In addition, in the experiment on wild-type Htt gene, the “Htt mRNA in cells with homozygous wild-type Htt allele” value is “not detectable”. Also, the “Htt mRNA transcribed from mutant allele” value with mutant Htt gene is listed as “down-regulated; also recorded: reduces the expression of mutant Htt gene”. In addition, in experiment [4], the “complex formation of Supt4h-YC and NGN-YN” value is listed as “lower the complex formation”. Also, in the experiment with 21-VS cells (HA-Venus), the “fluorescence signal of 21-VS cells” value was “not altered”.
